Test results reported in ChEMBL document CHEMBL1148585, “Classification of chemical compounds by protein-compound docking for use in designing a focused library” (J Med Chem, 2006).

Biological target: T1, Macrophage migration inhibitory factor (Homo sapiens, UniProt P14174)
T1 sequence (P14174 whole entry): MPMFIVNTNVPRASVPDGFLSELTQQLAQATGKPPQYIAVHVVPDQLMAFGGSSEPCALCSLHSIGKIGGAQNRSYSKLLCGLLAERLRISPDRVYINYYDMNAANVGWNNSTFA
Assay: Inhibition of MIF

IC50 | Structure (SMILES)
8.1 µM | O=C(O)CC(c1ccc(Cl)cc1)(c1ccc(Cl)cc1)c1ccc(Cl)cc1
0.4 µM | Oc1ccc(CSc2ccncc2)cc1O
30 µM | O=C(c1cnc(CCCC2CCCCC2)o1)N1CCN(Cc2ccccc2)CC1
3.4 µM | O=C(O)C1Nc2ccc(Br)cc2C2C=CCC12 (stereo not given)
8 µM | CC(C)C(=O)Nc1cc2c(cc1CCc1cccc3ccccc13)C(C(=O)O)CC2c1cccs1 (stereo not given)
